Tests used:
[1] = test system: rat intestine (jejunum segment); experiment: In situ intestinal perfusion of four lignans; assay type: in vivo; settings: for Perfusate (Percent of the initial dose) / Plasma (Percent of the initial dose) / Intestine (Percent of the initial dose) / Pblood / Plumen: 50 μM, n = 3; for Perfusate (Percent of the initial dose): intestinal perfusion 60 min; for Plasma (Percent of the initial dose) / Intestine (Percent of the initial dose) / Rise of cumulative plasma amount: intestinal perfusion; for Plasma (Percent of the initial dose): mesenteric vein blood; for Increase of remaining amount in perfusate: intestinal autoperfusion (60 min), CCl4-treated rats vs control; for Rise of cumulative plasma amount: CCl4-intoxicated rats vs control
Procedure: The surgical procedures of intestinal perfusion were conducted according to those published reports (Savina et al., [1981]). Hank's balanced salt solution (HBSS, pH 7.4) with four schisandra lignans (50 μM) at 37°C was infused into the jejunum segment at rate of 0.3 mL/min. Phenol Red (50 μM) was added to serve as a nonabsorbable marker for measuring water flux. Blood samples from mesenteric vein and perfusate were collected at 5-min interval. The plasma separated by centrifugation and perfusate was stored at −20°C until HPLC-MS analysis.
The permeability of four lignans across the rat intestine was calculated based on the disappearance of parent drug from the lumen (Plumen) as well as the appearance of the drug in blood (Pblood) using the following equations (Singhal et al., [1998]):
(1) Plumen = −Q/2πrlLnCout/Cin
(1) Pblood = ΔMB/Δt/2πrl{C}
where r is the radius of the perfused intestinal lumen; l is the length of the segment; Q is the flow rate of perfusate; Cin is the concentration of drug at the start of perfusion; and Cout is the steady-state concentration of drug exiting the lumen. ΔMB/Δt is the rate of drug appearance in mesenteric blood; and {C} is the logarithmic mean concentration of drug in the lumen.

[2] = In situ hepatic perfusion of four lignans; assay type: in vivo, rat; settings: Sprague-Dawley, rat, perfusate, perfusate AUC(0−1h), n = 3
Procedure: (§1) In situ liver perfusion was performed similarly as the method described previously (Uraki et al., [2016]). […] The perfusate consisted of Krebs–Hensleit buffer (pH 7.4) containing sodium taurocholate (4.75 mg/L), 1% bovine serum albumin, and glucose (1.2 g/L) was oxygenated using carbogen, 95% O2/5% CO2. The perfusate at 37°C was infused into the portal vein at a flow rate of 30 mL/min in a recirculatory manner. After 10-min equilibration, four schisandra lignans were added to the reservoir (final concentration of 10 μM). Perfusate (0.5 mL) and bile samples were collected at 0, 10, 20, 30, 40, 50, and 60 min after the addition of lignans. The same volume of blank perfusion buffer was immediately added to the reservoir after collection of the perfusate samples. After hepatic perfusion, rat was sacrificed and liver was removed, blotted dry, and weighed.

[3] = test system: rat liver; experiment: In situ hepatic perfusion of four lignans; assay type: in vivo; settings: hepatic perfusion 60 min, 10 μM, n = 3
Procedure: as §1

[4] = Identification of CYP450 isozymes in lignan metabolism, rat liver microsomes (no inhibitor / overall); assay type: in vitro ADME; settings: for Metabolism rate: rat liver microsomes 1 mg/mL, 5 μM, Control (no inhibitor); for CYP450 isozymes participated in the metabolism (≥20% inhibition): rat liver microsomes incubation with selective inhibitors
Procedure: (§2) The CYP450s involved in the metabolism of schisandrin, schisantherin A, deoxyshisandrin and γ-schisandrin in rat or human liver microsomes were confirmed by comparison of the metabolism ratio before and after the addition of selective inhibitors to CYP450 isozymes. […] The supernate was injected to HPLC-MS for analysis of the four lignans.

[5] = target: T1, CYP1A2 (Rattus norvegicus, UniProt P04799); experiment: Lignan metabolism in rat liver microsomes with furafylline; assay type: in vitro ADME; settings: 5 μM, + Furafylline 50 μM (CYP1A2)
T1 sequence (P04799 1-513): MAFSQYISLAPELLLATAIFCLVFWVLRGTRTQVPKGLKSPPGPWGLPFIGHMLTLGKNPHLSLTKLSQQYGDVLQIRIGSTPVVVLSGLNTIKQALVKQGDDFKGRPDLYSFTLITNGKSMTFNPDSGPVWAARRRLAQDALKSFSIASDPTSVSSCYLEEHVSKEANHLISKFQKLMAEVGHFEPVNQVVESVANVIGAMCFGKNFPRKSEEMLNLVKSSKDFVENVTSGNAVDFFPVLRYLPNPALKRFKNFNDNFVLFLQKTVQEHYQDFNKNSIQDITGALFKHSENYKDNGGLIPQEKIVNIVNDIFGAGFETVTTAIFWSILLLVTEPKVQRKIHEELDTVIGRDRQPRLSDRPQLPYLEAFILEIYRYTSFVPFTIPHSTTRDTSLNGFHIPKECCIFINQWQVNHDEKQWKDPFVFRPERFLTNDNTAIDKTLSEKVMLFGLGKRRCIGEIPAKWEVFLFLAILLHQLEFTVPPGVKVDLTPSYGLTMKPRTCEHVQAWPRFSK
Procedure: as §2

[6] = Transport across Caco-2 cell monolayer; assay type: in vitro ADME; settings: human, Caco-2; for efflux ratio at 2 h, 5 μM / efflux ratio at 2 h, 10 μM / efflux ratio at 2 h, 50 μM: ER = Papp (BL → AP)/Papp(AP → BL)
Procedure: Caco-2 cell (passage 38) was used in the transport experiments. Cells were seeded on polycarbonate filters (12 mm diameter, pore size […]) at 1 × 10^5/cm^2. The cell monolayer was formed 21 days post seeding when the transepithelial electrical resistance (TEER) was above 1,000 Ω• cm^2. Three concentration levels (5, 10, and 50 μM) were set for the four schisandra lignans in the study. After preincubation for 1 h at 37°C, the solution of the four lignans was respectively added to the apical (0.4 mL) or basolateral (0.6 mL) chamber for absorptive (AP → BL) and secretive (BL → AP) permeability test. At the specified timepoints (0.5, 1, 1.5 and 2 h), 50 μL samples (n = 3) were withdrawn from receiver chamber, and meanwhile, 50 μL fresh buffer was added. The four lignans were determined by HPLC-MS method.
The efflux rate (ER) was calculated by the formula ER = Papp (BL → AP)/Papp(AP → BL).

Row | SMILES | Perfusate (Percent of the initial dose) ([1]; CCl4-intoxicated rats) | Plasma (Percent of the initial dose) ([1]; CCl4-intoxicated rats) | Intestine (Percent of the initial dose) ([1]; CCl4-intoxicated rats) | Pblood ([1]; CCl4-intoxicated rats) | Plumen ([1]; CCl4-intoxicated rats) | Perfusate (Percent of the initial dose) ([1]; Control rats) | Plasma (Percent of the initial dose) ([1]; Control rats) | Intestine (Percent of the initial dose) ([1]; Control rats) | Pblood ([1]; Control rats) | Plumen ([1]; Control rats) | Increase of remaining amount in perfusate [1] | Rise of cumulative plasma amount [1] | AUC at 10 μM ([2]; pH 7.4, CCl4-intoxicated rats) | AUC at 10 μM ([2]; pH 7.4, Control rats) | Total amount of analyte in bile ([3]; CCl4-intoxicated rats) | Total amount of analyte in liver ([3]; CCl4-intoxicated rats) | Total amount of analyte in bile ([3]; Control rats) | Total amount of analyte in liver ([3]; Control rats) | Metabolism rate [4] | CYP450 isozymes participated in the metabolism (≥20% inhibition) [4] | other results
1 | COc1cc2c(c(OC)c1OC)-c1c(cc(OC)c(OC)c1OC)C[C@](C)(O)[C@@H](C)C2 [Schisandrin, schisandrin] | 93.40 ± 1.05% of the initial dose | 0.84 ± 0.06% of the initial dose | 1.98 ± 0.13% of the initial dose | 0.063 ± 0.008 × 10^−4 cm/s | 2.420 ± 0.788 × 10^−4 cm/s | 86.16 ± 1.39% of the initial dose | 0.44 ± 0.06% of the initial dose | 2.22 ± 0.96% of the initial dose | 0.046 ± 0.008 × 10^−4 cm/s | 2.490 ± 0.141 × 10^−4 cm/s | about 10% | about 91% | 3860 ± 70 ng·h/mL | 3230 ± 110 ng·h/mL | 1.06 ± 0.14 µg | 19.55 ± 2.07 µg | 1.15 ± 0.27 µg | 11.19 ± 1.18 µg | 233.3 ± 35.6 nmol/min/mg | CYP2C6/11, CYP2E1, and CYP3A | Metabolism rate [5]: 215.1 ± 26.5 nmol/min/mg; Papp A→B at 2 h, 5 μM [6]: 2.15 ± 0.56 ×10⁻⁶ cm/s; Papp B→A at 2 h, 5 μM [6]: 3.31 ± 0.59 ×10⁻⁶ cm/s; efflux ratio at 2 h, 5 μM [6]: 1.54; Papp A→B at 2 h, 10 μM [6]: 1.86 ± 0.17 ×10⁻⁶ cm/s; Papp B→A at 2 h, 10 μM [6]: 2.03 ± 0.11 ×10⁻⁶ cm/s; efflux ratio at 2 h, 10 μM [6]: 1.09; Papp A→B at 2 h, 50 μM [6]: 1.93 ± 0.2 ×10⁻⁶ cm/s; Papp B→A at 2 h, 50 μM [6]: 2.12 ± 0.17 ×10⁻⁶ cm/s; efflux ratio at 2 h, 50 μM [6]: 1.1
2 | COc1cc2c(c(OC)c1OC)-c1c(cc(OC)c(OC)c1OC)C[C@H](C)[C@@H](C)C2 [Deoxyshisandrin, deoxyshisandrin] | 91.77 ± 1.59% of the initial dose | 0.83 ± 0.06% of the initial dose | 1.79 ± 0.41% of the initial dose | 0.063 ± 0.018 × 10^−4 cm/s | 2.270 ± 0.363 × 10^−4 cm/s | 81.69 ± 1.77% of the initial dose | 0.51 ± 0.03% of the initial dose | 1.69 ± 0.30% of the initial dose | 0.053 ± 0.009 × 10^−4 cm/s | 2.337 ± 0.211 × 10^−4 cm/s | about 10% | ~63% | 3620 ± 100 ng·h/mL | 3090 ± 120 ng·h/mL | 0.75 ± 0.07 µg | 14.57 ± 2.41 µg | 1.29 ± 0.30 µg | 9.71 ± 1.32 µg | 87.5 ± 7.8 nmol/min/mg | CYP2C11, CYP2D2, CYP2E1, and CYP3A | Metabolism rate [5]: 85.2 ± 7.6 nmol/min/mg; Papp A→B at 2 h, 5 μM [6]: 1.17 ± 0.13 ×10⁻⁶ cm/s; Papp B→A at 2 h, 5 μM [6]: 1.67 ± 0.14 ×10⁻⁶ cm/s; efflux ratio at 2 h, 5 μM [6]: 1.42; Papp A→B at 2 h, 10 μM [6]: 1.16 ± 0.04 ×10⁻⁶ cm/s; Papp B→A at 2 h, 10 μM [6]: 1.52 ± 0.16 ×10⁻⁶ cm/s; efflux ratio at 2 h, 10 μM [6]: 1.31; Papp A→B at 2 h, 50 μM [6]: 1.24 ± 0.17 ×10⁻⁶ cm/s; Papp B→A at 2 h, 50 μM [6]: 1.71 ± 0.51 ×10⁻⁶ cm/s; efflux ratio at 2 h, 50 μM [6]: 1.38
